From US11479578B2, “Protein purification and virus inactivation with alkyl glycosides” (priority 2017, dated 2022)
Read-outs that look alike come from different tables or passages of the source.

How the values were obtained:
PRV (pseudorabies virus) = format: cell-based
[1] = test system: MuLV (murine leukemia virus); format: cell-based
[2] = test system: BVDV (bovine viral diarrhea virus); format: cell-based
VACV (Vaccinia virus) = format: cell-based
[3] = test system: VSV (Vesicular Stomatitis Virus); format: cell-based
rD′D3-FP = biological target: T1, rD′D3-FP (Homo sapiens, UniProt P02768+P04275)
T1 construct: made in house; host or cells: CHO cells
T1 sequence (P04275+P02768 fused): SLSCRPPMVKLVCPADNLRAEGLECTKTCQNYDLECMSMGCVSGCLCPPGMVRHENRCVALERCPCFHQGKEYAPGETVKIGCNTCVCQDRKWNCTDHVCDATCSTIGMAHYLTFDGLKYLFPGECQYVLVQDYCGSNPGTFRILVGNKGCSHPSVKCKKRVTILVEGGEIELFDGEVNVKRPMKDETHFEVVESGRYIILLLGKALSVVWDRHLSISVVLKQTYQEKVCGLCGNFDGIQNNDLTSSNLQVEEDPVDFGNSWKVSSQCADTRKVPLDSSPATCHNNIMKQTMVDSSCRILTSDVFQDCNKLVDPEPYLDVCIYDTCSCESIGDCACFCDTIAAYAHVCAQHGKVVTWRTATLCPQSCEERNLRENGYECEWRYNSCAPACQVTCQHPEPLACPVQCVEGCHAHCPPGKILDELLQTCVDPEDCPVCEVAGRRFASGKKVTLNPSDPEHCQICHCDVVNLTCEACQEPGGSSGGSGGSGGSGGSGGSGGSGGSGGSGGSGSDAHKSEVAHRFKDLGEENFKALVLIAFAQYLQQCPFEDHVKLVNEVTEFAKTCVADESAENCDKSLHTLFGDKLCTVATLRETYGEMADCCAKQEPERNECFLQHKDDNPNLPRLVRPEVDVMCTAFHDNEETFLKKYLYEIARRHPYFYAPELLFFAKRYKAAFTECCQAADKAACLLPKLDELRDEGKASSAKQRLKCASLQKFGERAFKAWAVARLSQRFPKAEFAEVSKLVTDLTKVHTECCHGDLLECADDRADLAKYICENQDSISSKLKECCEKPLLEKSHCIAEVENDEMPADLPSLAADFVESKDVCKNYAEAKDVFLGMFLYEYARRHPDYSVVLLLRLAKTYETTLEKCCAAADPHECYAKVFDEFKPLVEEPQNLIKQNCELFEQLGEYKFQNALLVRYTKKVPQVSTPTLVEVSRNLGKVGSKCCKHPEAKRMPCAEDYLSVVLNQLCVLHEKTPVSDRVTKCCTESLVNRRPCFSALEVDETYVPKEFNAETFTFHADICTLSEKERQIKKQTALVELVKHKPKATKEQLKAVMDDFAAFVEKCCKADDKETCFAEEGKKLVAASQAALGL

CCCCCCCCCCO[C@@H]1O[C@H](CO)[C@@H](O[C@H]2O[C@H](CO)[C@@H](O)[C@H](O)[C@H]2O)[C@H](O)[C@H]1O [DM, n-decyl-beta-D-maltoside]
PRV virus titre after treatment (PRV (pseudorabies virus)): ≤2.2 | virus inactivation capacity (in words) (PRV (pseudorabies virus)): effective

CCCCCCCCCCO[C@@H]1O[C@H](CO)[C@@H](O)[C@H](O)[C@H]1O [DG, n-decyl-beta-D-glucopyranoside]
PRV virus titre after treatment (PRV (pseudorabies virus)): ≤2.2 | virus inactivation capacity (in words) (PRV (pseudorabies virus)): effective

CCCCCCCCO[C@@H]1O[C@H](CO)[C@@H](O[C@H]2O[C@H](CO)[C@@H](O)[C@H](O)[C@H]2O)[C@H](O)[C@H]1O [OM, n-octyl-beta-D-maltoside]
virus inactivation capacity (in words) (PRV (pseudorabies virus)): effective

CCCCCCCCO[C@@H]1O[C@H](CO)[C@@H](O)[C@H](O)[C@H]1O [OG, n-octyl-beta-D-glucopyranoside]
LRV [1]: ≥4.2 log10 | MuLV virus titre after treatment [1]: ≤1.2 | time to complete MuLV inactivation [1]: ≤ 15 min | BVDV virus titre after treatment [2]: ≤1.2 | LRV [2]: ≥5.3 log10 | time to complete BVDV inactivation [2]: ≤ 15 min | VACV inactivation (in words) (VACV (Vaccinia virus)): completely inactivates VACV very fast | VACV virus titre after treatment (VACV (Vaccinia virus)): ≤1.5 | VSV virus titre after treatment [3]: ≤1.5 | rD′D3-FP in the eluate fraction (rD′D3-FP): 83% | LRV (PRV (pseudorabies virus)): ≥6.3 log10 | time to complete PRV inactivation (PRV (pseudorabies virus)): 60 min | virus inactivation capacity (in words) (PRV (pseudorabies virus)): effective | PRV Load (PRV (pseudorabies virus); 15 min): ≤1.2 log10 | PRV Load (PRV (pseudorabies virus); 120 min): 6.7 log10

CCCCCCCCCCCCO[C@@H]1O[C@H](CO)[C@@H](O)[C@H](O)[C@H]1O [DDG, n-dodecyl-beta-D-glucopyranoside]
PRV virus titre after treatment (PRV (pseudorabies virus)): ≤2.2 | virus inactivation capacity (in words) (PRV (pseudorabies virus)): effective

CCCCCCCCCCCCO[C@@H]1O[C@H](CO)[C@@H](O[C@H]2O[C@H](CO)[C@@H](O)[C@H](O)[C@H]2O)[C@H](O)[C@H]1O [DDM, n-dodecyl-beta-D-maltoside]
PRV virus titre after treatment (PRV (pseudorabies virus)): ≤4.2 | virus inactivation capacity (in words) (PRV (pseudorabies virus)): effective
